We go through five compounds from paper PMC9697446 (International Journal of Molecular Sciences, 2022).

For assay [1], the target named is T1, equine serum BChE (Equus caballus, UniProt P81908).
T1 construct: the equine serum BChE, and the porcine liver CES; purchased Sigma-Aldrich; host or cells: equine serum
The assay can be described thus: biochemical. To be noted: IC50 ± SEM, n = 3. As for the experimental part:
(§1) The esterase profile was estimated using the human erythrocyteAChE, the equine serum BChE, and the porcine liver CES.
(§2) Human erythrocyte AChE, equine serum BChE, porcine liver CES, acetylthiocholine iodide (ATCh), butyrylthiocholine iodide (BTCh), 5,5′-dithio-bis-(2-nitrobenzoic acid) (DTNB), 4-nitrophenol acetate (4-NPA), and BNPP were purchased from Sigma-Aldrich (St. Louis, MO, USA).
(§3) AChE and BChE activities were measured via the Ellman method. The assay solution consisted of 0.1 M K/Na phosphate buffer pH 7.5, 25 °C with the addition of 0.33 mM DTNB, 0.02 unit/mL of AChE or BChE and 1 mM of substrate (ATCh or BTCh, respectively). The assays were carried out with a reagent blank containing all components (except AChE orBChE) in order to account for the non-enzymatic hydrolysis of the substrate. In addition, an enzyme blank was included that contained all components except substrate to account for non-substrate sulfhydryl groups.
(§4) The test compounds were dissolved in DMSO, and the incubation mixture contained 2% (v/v) of the solvent. Enzyme inhibition was first assessed at a single concentration of 20 µM for each compound after a 5 min incubation at 25 °C in three separate experiments. […] The test compounds were added to the assay solution and preincubated at 25 °C with the enzymes for 5 min, followed by the addition of substrate. A parallel control was made for the assay solution with no inhibitor. Measurements were performed with a FLUOStar Optima microplate reader (BMG Labtech, Ortenberg, Germany). Each experiment was performed in triplicate. The results were expressed as the mean ± SEM. The reaction rates in the presence and absence of the inhibitor were compared, and the percent of residual enzyme activity due to the presence of test compounds was calculated.

The target of assay [2] is T2, human erythrocyte AChE (Homo sapiens, UniProt P22303).
T2 construct: The esterase profile was estimated using the human erythrocyteAChE; purchased Sigma-Aldrich; host or cells: human erythrocytes
The experiment in a line: biochemical. To be noted: IC50 ± SEM, n = 3. As for the experimental part: as §1, §2, §3, §4

Assay [3] deals with porcine liver CES. The assay can be described thus: CES inhibition (4-nitrophenyl acetate hydrolysis).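 Note: values are percent inhibition of CES activity not residual activity.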 It counts as biochemical. Particulars: ± SEM, n = 3. The method, then:
as §1, §2
The assay solution consisted of 0.1 M K/Na phosphate buffer pH 8.0, 25 °C, with the addition of 1 mM 4-nitrophenyl acetate and 0.02 unit/mL of CES. The assays were carried out with a blank containing all components, except CES.
as §4

In assay [4] the target is T3, EeAChE (Electrophorus electricus, UniProt O42275).
T3 construct: purchased Sigma-Aldrich type VI-S
The experiment in a line: biochemical. To be noted: means ± SEM (n = 3); read-out: EeAChE Inhibition, IC50. As for the experimental part: We selected AChE from electric eels (Electrophorus electricus) for consistency with our other reports and because of its purity, specific activity, and lower cost compared to human AChE [64].
as §3, §4
(§5) PIand donepezil were purchased from Sigma-Aldrich. […] As the source of the enzyme, electric eel (Elecrophorus electricus) AChE (EeAChE, type VI-S, lyophilized powder, Sigma-Aldrich, Saint Louis, MO, USA) was used. The applicability of this enzyme was shown earlier

Assay [5] deals with T4, EeAChE PAS (Electrophorus electricus, UniProt O42275).
T4 construct: purchased Sigma-Aldrich type VI-S
The experiment in a line: biochemical. To be noted: EeAChE 7 µM, PI 8 µM, means ± SEM (n = 3); for inhibition at 3 µM: compound 3 µM, read-out: PI Displacement, 3 µM; for inhibition at 20 µM: compound 20 µM, read-out: PI Displacement, 20 µM. It counts as binding. The method, then: as §5
To determine the percentage of displacement of PI from the EeAChE PAS, EeAChE (with a final concentration of 7 μM) was incubated with the test compound at a concentration of 3 and 20 μM in 1 mM Tris-HCl buffer pH 8.0, 25 °C for 15 min. Next, PIsolution (with a final concentration of 8 μM) was added, the samples were incubated for 15 min, and the fluorescence spectrum (530 nm (exc.) and 600 nm (emiss.)) was taken. Donepezil and decamethonium were used as reference compounds. The blank contained PI of the same concentration in 1 mM Tris-HCl buffer pH 8.0. The measurements were carried out in triplicate on a FLUOStar Optima microplate reader).
The percentage of displacement of PIfrom the peripheral anionic site of AChE was calculated using the following formula:% Displacement = 100 − (IFAChE+Propidium+inhibitor/IFAChE+Propidium) × 100,(1) where IFAChE+Propidium is the fluorescence intensity of the propidium associated with AChE in the absence of the test compound (taken as 100%) and IFAChE+Propidium+inhibitor is the fluorescence intensity of the propidium associated with AChE in the presence of the test compound.

A short description of assay [6]: ABTS radical cation scavenging assay. To be noted: 1 h incubation, means ± SEM (n = 3); for IC50: 50% reduction of ABTS radical; for ABTS Scavenging Activity, TEAC Value: Trolox equivalent antioxidant capacity. The method, then: The ABTS assay is based on the direct binding of a model ABTS radical cation (2,2′-azino-bis-(3-ethylbenzothiazoline-6-sulfonate), ABTS^•+) by antioxidants. The measurements were performed as previously described in detail.
The radical scavenging activity was expressed as TEAC values (Trolox equivalent antioxidant capacity) and determined as the ratio between the slopes obtained from the linear correlation of the ABTS radical absorbance with the concentrations of the test compounds and Trolox.
The radical scavenging activity of the compounds was assessed using an ABTS radical decolorization assay. The procedure followed the reported protocol with minor modifications. ABTS (2,2ʹ-azino-bis-(3-ethylbenzothiazoline-6-sulfonic acid) diammonium salt) was purchased from TCI (Tokyo, Japan), while potassium persulfate (di-potassium peroxodisulfate), Trolox (6-hydroxy-2,5,7,8-tetramethylchroman-2-carboxylic acid), catechol, and DMSO were received from Sigma-Aldrich Chemical Co. (St. Louis, MO, USA). The ethanol was HPLC grade. Aqueous solutions were prepared using deionized water.
Trolox was used as the standard reference compound. Catechol was used as the positive control. All test and reference compounds were dissolved in DMSO. The final concentration of DMSO in the reaction mixture was 4% (v/v).
The solution of ABTS radical cation (ABTS^•+) was produced by mixing a 7 mM ABTS stock solution with a 2.45 mM aqueous solution of potassium persulfate in equal quantities and allowing them to react for 12–16 h at room temperature in the dark. At the time of activity determination, the ABTS^•+ solution was diluted with ethanol to adjust it to an absorbance value of about 0.80 ± 0.05 at 734 nm. A fresh working solution of ABTS^•+ was prepared for each assay.
The radical scavenging capacity of the compounds was analyzed by mixing 10 μL of test compound with 240 μL of ABTS^•+ working solution. The reduction in absorbance was measured spectrophotometrically at 734 nm using an xMark microplate UV/VIS spectrophotometer (Bio-Rad, Hercules, CA, USA). The reaction was monitored for an hour at 10 min intervals. Data were given for 1 h of incubation of compounds with ABTS^•+. EtOH blanks were run in each assay. The results were obtained from three replicates of each sample and three independent experiments.
The antioxidant capacity as a Trolox equivalent (TEAC values) was determined as the ratio between the slopes obtained from the linear correlation of concentrations of test compounds and Trolox with absorbance of ABTS radical.

Assay [7] in a line: Oxygen radical absorbance capacity assay (ORAC-FL). Particulars: Trolox equivalent, Trolox = 1; means ± SEM (n = 3).
Description: The method is based on the measurement of the fluorescence intensity characterizing the degree of destruction of the fluorescence probe under the action of peroxyl radicals.
The peroxyl radical scavenging capacity of the test compounds was characterized in terms of the Trolox equivalent (TE), which is equal to the ratio of the Trolox concentration to the concentration of a test compound when they show equal fluorescence intensities in the assay. The peroxyl radical scavenging capacity of Trolox was set as 1 [67, 68].
2,2´-Azobis(amidinopropane) dihydrochloride (AAPH), (±)-6-hydroxy-2,5,7,8-tetramethylchroman-2-carboxylic acid (Trolox), and fluorescein (FL) were purchased from Sigma-Aldrich. The reaction was carried out at 37 °C in 75 mM K,Na phosphate buffer (pH 7.4), and the final reaction mixture was 200 µL. The test compounds and the Trolox standard were dissolved in DMSO to 10 mM and further diluted in a 75 mM K,Na phosphate buffer (pH 7.4). The final concentrations were 0.1–1 µM for the test compounds and 1–6 µM for the Trolox. The blank was composed of 20 µL of a 75 mM K,Na phosphate buffer (pH 7.4) containing 20% (v/v) DMSO, 120 µL of FL and 60 µL of AAPH, and it was added in each assay. The antioxidant (20 µL) and FL (120 µL, final concentration: 70 nM) solutions were placed in a black 96-well microplate and were preincubated for 15 min at 37 °C. A solution of AAPH (60 µL, final concentration: 12 mM) was then added rapidly using a multichannel pipette. The microplate was immediately placed in the reader, and the fluorescence was recorded every minute for 100 min. The microplate was automatically shaken prior to each reading. The Trolox standard curve was also obtained in each assay. All reactions were carried out in triplicate, and at least three different assays were performed for each sample.
The antioxidant curves (fluorescence vs. time) were first normalized to the curve of the blank (without the antioxidant) corresponding to the same assay, and the area under the fluorescence decay curve (AUC) was calculated. The net AUC corresponding to a sample was calculated by subtracting the AUC corresponding to the blank. Regression equations were calculated by plotting the net AUC against the antioxidant concentration. The ORAC Tolox equivalent value (TE) was obtained by dividing the slope of the latter curve by the slope of the Trolox curve obtained in the same assay. The ability of Trolox to scavenge the peroxyl radical was equal to 1 [64, 65]. […] The data are expressed as means ± SEM.

T4 sequence (O42275 24-633): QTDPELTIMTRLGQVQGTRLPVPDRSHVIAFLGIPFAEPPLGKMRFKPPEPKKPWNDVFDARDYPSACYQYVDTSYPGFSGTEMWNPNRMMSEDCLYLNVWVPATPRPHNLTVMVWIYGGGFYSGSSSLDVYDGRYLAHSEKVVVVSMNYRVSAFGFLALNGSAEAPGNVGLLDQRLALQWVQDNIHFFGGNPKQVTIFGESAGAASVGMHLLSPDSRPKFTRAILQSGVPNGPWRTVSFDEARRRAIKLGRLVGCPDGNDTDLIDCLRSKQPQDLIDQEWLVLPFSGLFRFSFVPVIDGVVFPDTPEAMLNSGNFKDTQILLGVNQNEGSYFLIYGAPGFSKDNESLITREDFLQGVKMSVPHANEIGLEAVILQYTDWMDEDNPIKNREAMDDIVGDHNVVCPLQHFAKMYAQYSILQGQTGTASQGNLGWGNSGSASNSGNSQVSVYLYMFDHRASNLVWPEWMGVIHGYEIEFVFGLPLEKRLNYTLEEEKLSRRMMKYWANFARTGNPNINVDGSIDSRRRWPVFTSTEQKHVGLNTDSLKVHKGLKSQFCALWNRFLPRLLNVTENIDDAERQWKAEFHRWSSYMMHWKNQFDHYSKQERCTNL
T2 sequence (P22303 32-617 isoform P22303-2 limits assumed): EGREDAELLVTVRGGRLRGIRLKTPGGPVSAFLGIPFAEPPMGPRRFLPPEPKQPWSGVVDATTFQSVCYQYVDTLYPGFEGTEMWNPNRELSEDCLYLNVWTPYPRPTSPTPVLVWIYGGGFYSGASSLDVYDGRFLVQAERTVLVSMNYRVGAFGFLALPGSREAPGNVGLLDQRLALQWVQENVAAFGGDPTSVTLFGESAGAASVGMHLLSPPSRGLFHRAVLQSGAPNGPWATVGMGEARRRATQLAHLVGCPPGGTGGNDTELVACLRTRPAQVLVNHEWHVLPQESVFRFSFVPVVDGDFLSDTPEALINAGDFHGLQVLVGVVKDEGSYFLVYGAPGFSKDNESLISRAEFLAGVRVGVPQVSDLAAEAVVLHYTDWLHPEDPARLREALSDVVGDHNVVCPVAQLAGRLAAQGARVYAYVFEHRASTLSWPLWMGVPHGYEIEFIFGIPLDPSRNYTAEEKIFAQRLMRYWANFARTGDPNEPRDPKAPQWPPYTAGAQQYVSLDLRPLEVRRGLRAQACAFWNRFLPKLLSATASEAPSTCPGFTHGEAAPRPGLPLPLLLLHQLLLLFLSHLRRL
T3 sequence (O42275 24-633): as the sequence (O42275 24-633) above
T1 sequence (P81908 whole entry): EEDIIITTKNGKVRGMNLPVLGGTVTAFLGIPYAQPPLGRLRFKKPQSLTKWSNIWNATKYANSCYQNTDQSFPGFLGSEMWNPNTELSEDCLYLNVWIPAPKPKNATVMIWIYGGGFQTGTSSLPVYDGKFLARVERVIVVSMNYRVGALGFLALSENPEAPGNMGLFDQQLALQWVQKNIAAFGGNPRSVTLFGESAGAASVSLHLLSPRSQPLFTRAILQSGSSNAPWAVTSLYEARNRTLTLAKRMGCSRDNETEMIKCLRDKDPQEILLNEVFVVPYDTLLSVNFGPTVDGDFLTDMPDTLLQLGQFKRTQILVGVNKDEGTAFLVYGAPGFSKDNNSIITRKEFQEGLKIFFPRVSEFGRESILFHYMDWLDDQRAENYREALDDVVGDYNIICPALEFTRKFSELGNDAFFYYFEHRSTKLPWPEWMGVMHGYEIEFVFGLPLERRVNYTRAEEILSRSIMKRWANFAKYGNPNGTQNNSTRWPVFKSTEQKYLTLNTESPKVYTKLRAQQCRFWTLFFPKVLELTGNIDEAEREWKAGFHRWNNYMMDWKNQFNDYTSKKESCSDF

For the compound `CC1CCc2c(c3cc(C(F)(F)F)ccc3n2CCC(=O)N2c3ccc(N(C)C)cc3Sc3cc(N(C)C)ccc32)C1` (stereo not shown) [Compound 4g], the IC50 in assay [1] worked out at 20.3 ± 0.21 µM; in assay [2], 3.56 ± 0.09 µM; in assay [4], 0.8 ± 0.05 µM; in assay [6], 30.8 ± 2.9 µM. Besides, the “CES inhibition at 20 µM” value in assay [3] worked out at 1.4 ± 0.2%. Further, the inhibition at 3 µM in assay [5] was 20.9 ± 1.3%. The inhibition at 20 µM in assay [5] was 32.8 ± 0.7%. In assay [6], the “ABTS Scavenging Activity, TEAC Value” amounted to 0.70 ± 0.04. Further, in assay [7], the “ORAC, TE Value” amounted to 6.5 ± 0.1.
Consider `Oc1ccccc1O` [Catechol, catechol, reference compound], for which, in assay [6], the IC50 is 16.7 ± 1.2 µM and the “ABTS Scavenging Activity, TEAC Value” was determined as 1.20 ± 0.11. Also, the “ORAC, TE Value” in assay [7] came to 6.6 ± 0.2.
For the compound `Cc1c(C)c2c(c(C)c1O)CCC(C)(C(=O)O)O2` (stereo not shown) [Trolox, 6-hydroxy-2,5,7,8-tetramethylchroman-2-carboxylic acid, reference compound], in assay [6], half-maximal inhibition (IC50) required 20.4 ± 1.7 µM and the “ABTS Scavenging Activity, TEAC Value” was found to be 1.00. Also, the “ORAC, TE Value” in assay [7] worked out at 1.00.
Turning to `CN(C)c1ccc2c(c1)Sc1cc(N(C)C)ccc1N2C(=O)CCn1c2c(c3cc(OC(F)(F)F)ccc31)CCCCC2` [Compound 4l], the IC50 in assay [1] was 42.2 ± 2.93 µM; in assay [2], 15 ± 1.12 µM; in assay [4], 3.4 ± 0.21 µM; in assay [6], 20.7 ± 1.7 µM. The “CES inhibition at 20 µM” value in assay [3] is 7.6 ± 0.8%. Moreover, the inhibition at 3 µM in assay [5] came out at 14.9 ± 0.1%. In addition, the inhibition at 20 µM in assay [5] is 17 ± 1.2%. The “ABTS Scavenging Activity, TEAC Value” in assay [6] was 0.98 ± 0.09. The “ORAC, TE Value” in assay [7] is 8.4 ± 0.8.
With `c1ccc2c(c1)[nH]c1ccccc12` [carbazole, reference compound], the “CES inhibition at 20 µM” value in assay [3] worked out at 9.4 ± 1.0%.

A word on the IC50: it is the point on the concentration scale where inhibition reaches its midpoint.
